# pIC50: −log10 of the molar value.
# Key:
# ALDH1A3 [1] = molecular target: T1, ALDH1A3 (Homo sapiens, UniProt P47895); assay: ALDH1A3 cellular assay (ALDEFLUOR) in WM266.4 melanoma cells; format: cell-based; conditions: WM266.4 cells; 60 min incubation; percentage of ALDH-positive cells
# T1 sequence (P47895 1-512): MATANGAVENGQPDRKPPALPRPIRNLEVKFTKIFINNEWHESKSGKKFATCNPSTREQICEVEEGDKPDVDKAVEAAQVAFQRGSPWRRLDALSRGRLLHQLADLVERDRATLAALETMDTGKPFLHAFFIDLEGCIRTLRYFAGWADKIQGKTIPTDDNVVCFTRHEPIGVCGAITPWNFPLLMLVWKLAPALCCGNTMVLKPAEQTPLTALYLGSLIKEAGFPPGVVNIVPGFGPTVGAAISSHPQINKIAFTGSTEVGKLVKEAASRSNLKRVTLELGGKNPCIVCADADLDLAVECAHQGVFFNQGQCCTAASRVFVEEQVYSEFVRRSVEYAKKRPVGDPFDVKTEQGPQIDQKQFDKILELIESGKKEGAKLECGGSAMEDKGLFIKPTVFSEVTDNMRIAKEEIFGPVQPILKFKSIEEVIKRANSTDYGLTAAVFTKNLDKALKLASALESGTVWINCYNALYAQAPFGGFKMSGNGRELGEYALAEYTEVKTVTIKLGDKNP
# Description: Materials: WM266.4 cells were procured from ATCC. (WM266-4 is a metastatic human melanoma cell line.) The ALDEFLUOR™ Assay kit (cat. no. 01700) and Aldefluor buffer (cat. no. 01702) were procured from StemCell Technologies. Dulbecco's Modified Eagle Medium (DMEM), FluoroBrite DMEM, Glutamax and Hoechst 33342 were purchased from ThermoFisher. Verapamil was obtained from Fluorochem. FBS was obtained from Sigma. Echo Qualified 384-well low-dead-volume microplate and Echo Qualified 384-well polypropylene microplate were purchased from Labcyte, and the Microclear black sterile polystyrene microplate from Greiner Bio-One.
# Method: Intracellular inhibition of ALDH1A3 was assessed using the ALDEFLUOR™ Assay kit. The activated ALDEFLUOR™ reagent, BODIPY-aminoacetaldehyde (BAAA), is a fluorescent non-toxic substrate for ALDH enzymes, which freely diffuses into intact and viable cells. In the presence of ALDH enzyme activity, BAAA is converted into BODIPY-aminoacetate (BAA), which is retained inside the cells. The amount of fluorescent reaction product is proportional to the ALDH activity in the cells and is measured using an imaging cytometer. Active efflux of the reaction product is inhibited by an efflux inhibitor (Verapamil) in the ALDEFLUOR™ Assay Buffer.
# A frozen vial of cells was recovered into a T225 flask containing DMEM, high glucose, 10% FBS, 1% glutamax, 1% HEPES. The following day, media was changed and cells were ready for assay from 72 hours after recovery. Cells were transferred into FluoroBrite DMEM (plus 10% FBS, 1% glutamax and 1% HEPES) and diluted to 2.5×10^5 cells/mL. 30 μL of cells were added to each well to give 7500 cells/well and then incubated overnight at 37° C., 5% CO2. After overnight incubation, the media was aspirated and replaced by 20 μL substrate/Hoechst buffer solution. Each plate requires 9 mL of solution comprising, 9 mL ALDEFLUOR assay buffer, 18 μL BAAA substrate (final concentration 500 nM), 4.5 μL Hoechst 33342 (final concentration 5 μg/mL) and 4.5 μL Verapamil (final concentration 50 μM). Compounds were prepared for dosing using the Echo acoustic dispenser by aliquoting into a source plate and dosed directly onto the cell assay plate to give a 10 point dose response per compound ranging from 10 μM to 0.0005 μM final concentration in 3-fold dilution steps. Plates were then incubated for 60 minutes at 37° C., 5% CO2. The buffer was then aspirated and cells washed twice in ice-cold PBS. Plates were kept on ice and 30 μL of cold Aldefluor buffer with 50 μM verapamil dispensed per well. The plates were then imaged using the CellInsight fluorescent microscope. Hoechst fluorescence in the 405 nm channel indicated the nuclear area and this was used to define nuclei and then the surrounding cellular area. Fluorescence in the 488 nm channel of the defined cellular area indicates ALDH1A3 activity. The percentage of cells positive for ALDH activity was plotted versus compound concentration to generate EC50 values using curve fitting parameters defined in Dotmatics software.
# ALDH1A3 [2] = molecular target: T1, ALDH1A3; assay: Primary biochemical assay, NAD(P)H-Glo Detection System; set-up: His-tag; made in house; host or cells: E. coli Rosetta (DE3); conditions: 30 min pre-incubation, propionaldehyde and NAD at Km
# Description: Cloning: Open reading frames corresponding to the protein coding sequences of full length human ALDH1A1 (Uniprot ID P00352), ALDH1A2 (094788) and ALDH1A3 (P47895) were polymerase chain reaction (PCR) amplified from human cDNA and inserted into the multi-cloning sites of the commercially available (Novagen) E. coli expression vectors pET47b (ALDH1A1, EcoRI restriction site; ALDH1A2, BamHI and EcoRI sites) or pET28a (ALDH1A3, NdeI and BamHI sites), using standard molecular genetic techniques. Recombinant DNA products were sequence verified prior to use in expression studies.
# Expression: Expression constructs were transformed into the E. coli strain Rosetta (DE3) (Merck) and individual colonies used to inoculate 10 mL lysogen broth (LB) medium supplemented with kanamycin and chloramphenicol at 50 μg/mL and 34 μg/mL, respectively. Cultures were grown to saturation overnight at 37° C., prior to being used to sub-inoculate fresh 1 L LB medium cultures (plus antibiotics, as before). 1 L cultures were grown at 37° C., 200 rpm, throughout the day until the optical density at 600 nm (OD600) reached ˜0.8, at which point growth temperature was reduced to 18° C. and 1 mM isopropyl β-d-1-thiogalacto pyranoside (IPTG) added to induce protein expression.
# Cultures were left overnight (at least 16 h) under these conditions and the following day harvested by centrifugation (4000 G, 10 minutes). Culture supernatant was discarded and cell pellets stored at −80° C. until further processing.
# Purification: Cell pellets were thawed on ice, re-suspended in Ni Affinity Buffer A (20 mM HEPES pH 7.5, 300 mM NaCl, 20 mM imidazole, 1 mM tris(2-carboxyethyl)phosphine (TCEP)) with protease inhibitors (cOmplete Ultra protease inhibitor, Roche), and lysed by sonication. Lysates were clarified by centrifugation at 18,000 G, 4° C., for 40 minutes, and loaded directly onto a pre-equilibrated (Buffer A) 5 mL HisTrap Fast Flow column (GE Healthcare) by way of an AKTA Fast Protein Liquid Chromatography (FPLC) system. The column was sequentially treated with 6 column volumes (CV) 100% Buffer A, 8 CV of 90% Buffer A:10% Buffer B (20 mM 4-(2-hydroxyethyl)-1-piperazineethanesulfonic acid (HEPES) pH 7.5, 300 mM NaCl, 500 mM imidazole, 1 mM TCEP) and finally a linear gradient from 10-70% Buffer B over 8 CV to elute recombinant His-tagged protein. Relevant fractions (as measured by 280 nm absorbance) collected during elution were pooled and subjected to further purification by size exclusion chromatography (Superdex 200 26/600, GE Healthcare, running buffer 20 mM 2-(carbamoylmethylamino)ethanesulfonic acid (ACES) pH 7.5, 1 mM TCEP). Relevant fractions from this step were pooled, aliquoted, and stored at −80° C. until required for compound profiling assays.
# Materials: ALDH2 was purchased from Abnova. Tris(hydroxymethyl)aminomethane (Tris) was purchased from MP Biomedicals. TCEP, ethylenediaminetetraacetic acid (EDTA), propionaldehyde, DMSO and Tween-20 were purchased from Sigma. Nicotinamide adenine dinucleotide (NAD) was obtained from Abcam. The NAD(P)H-Glo™ Detection System was purchased from Promega. White, non-binding surface, 384 well plates were supplied by Corning (#3574).
# Method: Inhibition of ALDH1A3 was assessed using the NAD(P)H-Glo™ Detection System (Cat. No. G9062) from Promega. This assay detects the production of NADH from NAD by ALDH1A3 via the coupled enzymatic conversion of a proluciferin reductase substrate to generate a luminescent signal. Inhibition of ALDH1A3 by small molecule inhibitors will result in reduction or abrogation of luminescence signal increase above background. Inhibition of ALDH1A1, ALDH1A2 and ALDH2 (selectivity assays) were assessed using the same assay.
# Compounds were dosed into Corning 384 well assay plates using an Echo acoustic dispenser to give 10 point curves in a 3-fold dilution series. Compounds were dispensed from a 20 mM DMSO stock and initially screened at a top concentration of 20 μM (ALDH1A3) or 250 μM (ALDH1A1, ALDH1A2 & ALDH2). […]
compound,measurement,setting,value
"O=C1CCc2cc(NC(=O)c3ncccc3-c3cccc(F)c3)ccc2N1 [ALDHI-1020, 3-(3-fluorophenyl)-N-(2-oxo-3,4-dihydro-1H-quinolin-6-yl)pyridine-2-carboxamide]",pIC50,ALDH1A3 [1],5.00 to 6.00
same,pIC50,ALDH1A3 [2],5.00 to 6.00

# From US20240174634A1, “Aldehyde Dehydrogenase Inhibitors and Their Therapeutic Use” (priority 2020, published 2024)
